Data on 4 compounds can be found in article PMC9919139, “Sustainable Synthesis, Antiproliferative and Acetylcholinesterase Inhibition of 1,4- and 1,2-Naphthoquinone Derivatives” (Molecules, 2023).

Data set [1] deals with HepG2 human hepatocyte carcinoma cell line. The experiment in a line: MTT cytotoxicity assay against HepG2 cell line. The class given is cell-based. The conditions noted are these: HepG2, 24 h incubation, mean ± SD, read-out: EC50 (cytotoxicity, concentration leading to the death of 50% of the cells). As to the method: (§1) A hepatocellular carcinoma cell line HepG2, recognized for studying the metabolism of anticancer drugs, was used. The viability of HepG2 cell line culture after 24 h incubation with the compounds using the MTT (3-[4,5-dimethylthiazol-2-yl]-2,5-diphenyl tetrazolium bromide) assay was evaluated, and doxorubicin (Doxo) was used as a positive control.
(§2) HepG2 human hepatocyte carcinoma cell line was purchased from European Collection of Authenticated Cell Cultures (ECACC). HepG2 cells (ECACCC# 85011430) were cultured in Dulbecco’s Modified Eagle´s Medium (DMEM) supplemented with 10% fetal bovine serum, antibiotic-antimycotic (100 U/mL penicillin-streptomycin and 0.25 μg amphotericin B) and 2 mM L-glutamine at 37 °C in an atmosphere containing 5% CO2. The 3-(4,5-dimethylthiazol-2-yl)-2,5-diphenyltetrazolium bromide (MTT) method, described in Gaspar et al., [50] was used for assaying cell viability. Briefly, the cells were grown in the supplemented medium in 96-well microplates in an incubator with 5% CO2 at 37 °C, until reaching 100% confluence. After growth, the medium was replaced by the compounds’ solutions at different concentrations. The compounds were solubilized in supplemented medium containing 0.5% DMSO final concentration. Cells treated only with medium containing 0.5% DMSO served as a negative control. After 24 h incubation, the compound’s solutions were replaced by 100 µL of 0.5 mg/mL MTT solution in DMEM culture medium and incubated at 37 °C, 5% CO2 for 2–4 h. The formed formazan crystals were dissolved in 200 µL of methanol and the absorbance at 595 nm was registered against 630 nm (reference wavelength). For each concentration of the compounds, the percentage of growth inhibition/cytotoxicity was evaluated considering 100% of viability for the absorbance of the negative control. Dose-response curves for each compound were plotted using the Graph Pa Prim 4.0 software and the effective concentration leading to the death of 50% of the cells (EC50) was calculated. All experiments were replicated at least six times.
On the technique in general: Tetrazolium dyes change colour on reduction, which living cells bring about.

The nature of data set [2]: MTT cytotoxicity assay against HepG2 cell line. The conditions noted are these: human, HepG2 cells, HepG2, 24 h incubation, mean ± SD, read-out: EC50 (cytotoxicity, concentration leading to the death of 50% of the cells). The format is cell-based, human. The protocol:
as §1, §2

The nature of data set [3]: Cyclic voltammetry in acetonitrile. The format is physicochemical. An excerpt:
To obtain an insight into the electronic character of the studied naphthoquinone derivatives and to find out possible relationships with their potential biological activities, the electrochemical behavior of 1,4-NQ (1) and 1,2-NQ (2) and their 2-substituted-1,4-NQ (3a–f) and 4-substituted-1,2-NQ derivatives (4a–h), respectively, were studied by cyclic voltammetry (CV) in aprotic medium (CH3CN + TBAP, 0.1 mol.L^−^1) and the electrochemical selected data are listed in Table 3 (for complete electrochemical data, see Tables S1 and S2, supplementary material).
The redox potentials were measured by cyclic voltammetry using an EG&G Princeton Applied Research (PAR) Model 273A potentiostat/galvanostat monitored by a personal computer with the Electrochemistry PowerSuite v2.51 software from PAR. Cyclic voltammograms were obtained in 1 mM of compounds in anhydrous acetonitrile solutions containing tetrabutylammonium hexafluorophosphate (TBAPF6) 0.1 M as supporting electrolyte. A three-electrode configuration cell was used with a homemade platinum disk working electrode (1.0 mm diameter) probed by a Luggin capillary connected to a silver-wire pseudo-reference electrode and a platinum wire auxiliary electrode. The potentials were scanned from −1.8 to 1.8 V at a scan rate of 100 mV·s^−^1. All measurements were done at room temperature and the solutions were deaerated with nitrogen atmosphere before use. All the potentials reported were measured against the ferrocene/ferrocenium redox couple as internal standard and corrected to SCE (using the ferrocenium/ferrocene redox couple E1/2 = 0.40 V vs. SCE).

Data set [4] addresses acetylcholinesterase (AChE) (Homo sapiens, UniProt P22303). The experiment in a line: AChE inhibition assay (Ellman's colorimetric method). The format is biochemical. The protocol: The inhibition of acetylcholinesterase (AChE) enzymatic activity was measured using the Ellman’s colorimetric method with some alterations. Briefly, 325 μL of 50 mM Tris–HCl buffer (pH 8), 100 μL of a compound’s solution with 1% DMSO, and 25 μL of AChE (0.1 U/mL) in 50 mM Tris–HCl buffer pH 8 were incubated for 15 min. Subsequently, 75 μL of acetylthiocholine iodide (AChI) (0.023 mg/mL) and 475 μL of 3 mM 5,5′-dithiobis(2-nitrobenzoic acid) (DTNB) in Tris–HCl buffer (pH 8) containing 0.05 M NaCl and 0.021 M MgCl2 were added to initiate the reaction. The initial rate of the enzymatic reaction was quantified by measuring the absorbance at 405 nm for 5 min (V[compound]). A control reaction was carried out using 1% DMSO water solution, instead of the compound’s solution, and this initial rate was considered 100% of the enzymatic activity, Vcontrol. The percentage of AChE inhibition (I) for various concentrations of the different compounds was determined as the ratio of V[compound] and Vcontrol. For each compound, both the AChEIC50 value (the concentration that inhibits 50% of the AChE activity) and the percentage of inhibition at the compound concentration of 50 µM (Inhibition50µM) were calculated by plotting I for each compound concentration. All the assays were carried out in triplicate.
A general note: DTNB colorimetry detects thiols as they appear.

The subject of data set [5] is AChE. To be noted: read-out: AChEIC50 of reference AChE inhibitors; cited from earlier work.
The mark [6] stands for this setting: first reduction wave, acetonitrile, vs SCE, scan rate 0.100 V·s−1.
Where [7] appears, read: second reduction wave, acetonitrile, vs SCE, scan rate 0.100 V·s−1.
[8] abbreviates: read-out: Inhibiton50µM (μM±SD).

Where “and” joins values, the source holds several entries; their conditions need not be identical. Equal entries are not always repeated. Where two headings read alike, the source gives them in different places.

acetylcholinesterase (AChE), sequence (P22303 32-614): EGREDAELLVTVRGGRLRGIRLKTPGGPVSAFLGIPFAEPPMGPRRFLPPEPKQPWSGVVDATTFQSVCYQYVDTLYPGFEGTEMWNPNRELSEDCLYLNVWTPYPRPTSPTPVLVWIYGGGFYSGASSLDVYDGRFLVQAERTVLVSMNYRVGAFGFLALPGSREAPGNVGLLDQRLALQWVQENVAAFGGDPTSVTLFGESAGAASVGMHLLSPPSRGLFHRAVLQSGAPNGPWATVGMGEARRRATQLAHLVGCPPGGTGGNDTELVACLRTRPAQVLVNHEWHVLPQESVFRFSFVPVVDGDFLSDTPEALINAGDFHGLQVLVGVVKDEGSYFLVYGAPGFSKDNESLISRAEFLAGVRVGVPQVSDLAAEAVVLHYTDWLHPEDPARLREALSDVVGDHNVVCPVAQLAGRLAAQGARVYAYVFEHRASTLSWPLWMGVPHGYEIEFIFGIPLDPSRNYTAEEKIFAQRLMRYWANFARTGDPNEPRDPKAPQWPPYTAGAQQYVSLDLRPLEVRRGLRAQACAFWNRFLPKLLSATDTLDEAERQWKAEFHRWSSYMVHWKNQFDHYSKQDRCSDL

For `O=C1C=Cc2ccccc2C1=O` [Compound 2, 1,2-naphthoquinone], the EC50 in data set [1] (listed as 1,2-NQ) was 26 µM. Besides, in data set [2], the EC50 at 24 h was 25.6 ± 1.1 µM. In data set [3] (Tables S1/S2, acetonitrile, 100 mV.s-1), the Ipa/Ipc is 1.0. The “Epa. Epc” value in data set [3] (Tables S1/S2, peak separation, acetonitrile, 100 mV.s-1) was 110 mV and 140 mV. In addition, the “∆E (I)” value in data set [3] (first reduction wave, acetonitrile, scan rate 0.100 V·s−1) is listed as 110 mV. Further, in data set [3] (setting [6]), the “E1/2 (I)” value is reported as −0.50 V and the “Epc (I)” value is listed as −0.55 V. Further, the “∆E (II)” value in data set [3] (second reduction wave, acetonitrile, scan rate 0.100 V·s−1) was 140 mV. Further, in data set [3] (setting [7]), the “E1/2 (II)” value is on record as −0.91 V and the “Epc (II)” value was −0.98 V. The inhibition at 50 µM in data set [4] (read-out: Inhibition50µM (AChE inhibition)) came to 35%. Moreover, in data set [4] (setting [8]), the inhibition at 50 µM turned out to be 34.9 ± 5.2%.
With `Nc1ccc(NC2=CC(=O)C(=O)c3ccccc32)cc1` [Compound 4a], the EC50 in data set [1] stood at 3 µM. Also, the EC50 at 24 h in data set [2] came out at 2.7 ± 1 µM. The compound also registered an Epc in data set [3] (Tables S1/S2, every redox process listed, acetonitrile, vs SCE, 100 mV.s-1) of -0.67 V. Also, the “Epc (I)” value in data set [3] (setting [6]) was −0.67 V. In data set [4] (setting [8]), the inhibition at 50 µM was found to be 51.7 ± 2.1%.
`COc1ccc2c3c1O[C@H]1C[C@@H](O)C=C[C@@]31CCN(C)C2` [galantamine]: the IC50 in data set [5] is […].
With `CCN(C)C(=O)Oc1cccc([C@H](C)N(C)C)c1` [rivastigmine], the IC50 in data set [5] is […].
